Data: patent US20250120978A1, “JAK INHIBITOR WITH ERK1/2 AND/OR SHP2 INHIBITORS COMBINATION THERAPY” (Erasca, Inc., priority 2021, published 2025)

Tests used:
[1] = system: Human JAK2V617F-positive UKE-1 cells; assay: Apoptosis by Annexin V staining and flow cytometry in UKE-1 cells; type: cell-based; conditions: 72 hours, Annexin V staining; single drug
Experimental: The following experiment was designed to test whether the combination of Compound 2 and ruxolitinib induces apoptosis in UKE-1 cells harboring a JAK2V617F mutation. […] Cell apoptosis was determined by Annexin V staining and flow cytometry.

[2] = system: JAK2V617F knock-in mouse models; assay: Splenomegaly in Jak2V617F knock-in mouse model of MPN; type: in vivo; conditions: Compound 2 30 mg/kg/per day, compared with vehicle treatment
Experimental: In animal models, JAK2V617F expression typically leads to the development of MPN-like disease which results in enlargement of spleen (splenomegaly), higher cell counts, and fibrotic evolution. JAK2V617F knock-in mouse models were used to investigate the effect of the combination of Compound 2 with ruxolitinib. Animals were dosed with either Compound 2, ruxolitinib, or the combination of Compound 2 with ruxolitinib. […] Data are shown in bar graphs as mean±SEM (n=4 for vehicle; n=7 for Compound 2 I; n=4 for ruxolitinib; n=7 for combo drug treatment) in FIG. 6B. (*p<0.05; **p<0.005).

Compound: COCOC[C@H]1C[C@H]2COc3c(Sc4cnc(N5CCC6(CC5)CO[C@@H](C)[C@H]6N)c(CO)n4)ccnc3N2C1 [Compound 2, (3-((3S,4S)-4-amino-3-methyl-2-oxa-8-azaspiro[4.5]decan-8-yl)-6-(((6aS,8S)-8-((methoxymethoxy)methyl)-6a,7,8,9-tetrahydro-6H-pyrido[3,2-b]pyrrolo[1,2-d][1,4]oxazin-4-yl)thio)pyrazin-2-yl)methanol]
- cell apoptosis [1]: induced apoptosis
- spleen size/weight [2]: significantly reduced
